pIC50: −log10 of the molar value.
What was measured:
[1] = target: Acetylcholinesterase (Electrophorus electricus, UniProt O42275); assay: Anticholinesterase Activity Assays; details: pH 8
Experimental: (§1) The substrates of the reaction were acetylthiocholine iodide and butyrylthiocholine iodide. 5,5'-dithio-bis(2-nitrobenzoic) acid (DTNB) was used for the measurement of the anticholinesterase activity. The solutions of the samples and galantamine in n-propanol were prepared at concentration of 4000 µg/mL. […] 10 µL of DTNB solution was prepared by adding 2.0 mL of pH 7.0 and 4.0 mL of pH 8.0 phosphate buffers to a mixture of 1.0 mL of 16 mg/mL DTNB and 7.5 mg/mL NaHCO3 in pH 7.0 phosphate buffers. The reaction was initiated by the addition of 10 µL (7.1 mM) acetylthiocholine iodide (or 0.79 mM butyrylthiocholine iodide). Propyl alcohol was used as a solvent to controls. The hydrolysis of these substrates was monitored at 412 nm.

[2] = target: Carboxylic ester hydrolase (Equus caballus, UniProt Q9N1N9); assay: Anticholinesterase Activity Assays; details: pH 8
Chain of Carboxylic ester hydrolase (Q9N1N9 whole entry): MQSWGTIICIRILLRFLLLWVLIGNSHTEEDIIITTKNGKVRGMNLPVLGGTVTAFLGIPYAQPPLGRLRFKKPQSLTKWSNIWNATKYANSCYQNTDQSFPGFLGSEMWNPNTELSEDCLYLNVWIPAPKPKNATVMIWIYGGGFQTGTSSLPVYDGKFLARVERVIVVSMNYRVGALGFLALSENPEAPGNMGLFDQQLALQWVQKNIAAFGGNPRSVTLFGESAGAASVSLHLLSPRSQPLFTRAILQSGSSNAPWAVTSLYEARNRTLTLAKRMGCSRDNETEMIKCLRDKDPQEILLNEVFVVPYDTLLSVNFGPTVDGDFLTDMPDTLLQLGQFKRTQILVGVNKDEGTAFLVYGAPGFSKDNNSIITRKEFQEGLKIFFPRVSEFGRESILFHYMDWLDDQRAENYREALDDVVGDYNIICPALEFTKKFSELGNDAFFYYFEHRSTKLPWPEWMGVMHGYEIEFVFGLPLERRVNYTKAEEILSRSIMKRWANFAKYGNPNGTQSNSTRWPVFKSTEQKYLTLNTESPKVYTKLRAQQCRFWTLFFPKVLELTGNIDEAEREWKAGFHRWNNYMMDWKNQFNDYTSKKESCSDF
Experimental: as §1

Chain of Acetylcholinesterase (O42275 whole entry): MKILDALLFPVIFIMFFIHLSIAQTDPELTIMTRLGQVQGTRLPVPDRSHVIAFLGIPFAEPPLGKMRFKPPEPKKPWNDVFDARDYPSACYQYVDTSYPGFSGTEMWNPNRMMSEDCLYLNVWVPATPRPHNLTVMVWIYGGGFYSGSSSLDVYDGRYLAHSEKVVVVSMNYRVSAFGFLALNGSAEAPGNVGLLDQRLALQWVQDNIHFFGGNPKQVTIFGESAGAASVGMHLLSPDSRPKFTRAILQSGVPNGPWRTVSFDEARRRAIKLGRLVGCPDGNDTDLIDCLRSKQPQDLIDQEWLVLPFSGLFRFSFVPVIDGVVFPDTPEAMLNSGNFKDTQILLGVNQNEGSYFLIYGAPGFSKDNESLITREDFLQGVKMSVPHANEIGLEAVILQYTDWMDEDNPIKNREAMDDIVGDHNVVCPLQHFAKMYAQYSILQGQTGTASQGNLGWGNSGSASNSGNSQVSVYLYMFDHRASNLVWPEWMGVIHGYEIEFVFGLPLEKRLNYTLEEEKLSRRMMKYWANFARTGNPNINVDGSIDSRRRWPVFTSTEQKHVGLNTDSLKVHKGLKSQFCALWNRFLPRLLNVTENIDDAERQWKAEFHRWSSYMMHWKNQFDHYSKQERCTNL

| Structure (SMILES) | pIC50 [1] | pIC50 [2] |
| --- | --- | --- |
| COc1ccc(NC(=O)Nc2nc(-c3cc4ccccc4oc3=O)cs2)cc1 [1-(4-Methoxyphenyl)-3-(4-(2-oxo-2H-chromen-3-yl)thiazol-2-yl)urea (e3)] | 4.02 | 4.08 |
| COc1cccc(NC(=O)Nc2nc(-c3cc4cc([N+](=O)[O-])ccc4oc3=O)cs2)c1 [1-(3-Methoxyphenyl)-3-(4-(6-nitro-2-oxo-2H-chromen-3-yl)thiazol-2-yl)urea (e27)] | 4.41 | 4.11 |
| COc1cccc2cc(-c3csc(NC(=O)Nc4ccc([N+](=O)[O-])cc4)n3)c(=O)oc12 [1-(4-(8-Methoxy-2-oxo-2H-chromen-3-yl)thiazol-2-yl)-3-(4-nitrophenyl)urea (e19)] | 4.33 | 4.08 |
| COc1ccc(NC(=S)Nc2nc(-c3cc4cccc(OC)c4oc3=O)cs2)cc1 [1-(4-(8-Methoxy-2-oxo-2H-chromen-3-yl)thiazol-2-yl)-3-(4-methoxyphenyl)thiourea (f3)] | 4.39 | 4.51 |
| O=C(Nc1ccc(I)cc1)Nc1nc(-c2cc3cc([N+](=O)[O-])ccc3oc2=O)cs1 [1-(4-Iodophenyl)-3-(4-(6-nitro-2-oxo-2H-chromen-3-yl)thiazol-2-yl)urea (e34)] | 4.57 | 4.01 |
| COc1cccc2cc(-c3csc(NC(=O)Nc4ccccc4F)n3)c(=O)oc12 [1-(2-Fluorophenyl)-3-(4-(8-methoxy-2-oxo-2H-chromen-3-yl)thiazol-2-yl)urea (e20)] | 4.18 | 4.10 |
| COc1cccc2cc(-c3csc(NC(=O)Nc4ccc(Cl)cc4)n3)c(=O)oc12 [1-(4-(8-Methoxy-2-oxo-2H-chromen-3-yl)thiazol-2-yl)-3-(4-chlorophenyl)urea (e24)] | 3.97 | 4.15 |
| O=C(Nc1ccc(Br)cc1)Nc1nc(-c2cc3cc([N+](=O)[O-])ccc3oc2=O)cs1 [1-(4-Bromophenyl)-3-(4-(6-nitro-2-oxo-2H-chromen-3-yl)thiazol-2-yl)urea (e33)] | 4.34 | 4.03 |
| COc1cccc2cc(-c3csc(NC(=O)Nc4ccc(Br)cc4)n3)c(=O)oc12 [1-(4-Bromophenyl)-3-(4-(8-methoxy-2-oxo-2H-chromen-3-yl)thiazol-2-yl)urea (e25)] | 4.16 |  |
| O=C(Nc1ccc([N+](=O)[O-])cc1)Nc1nc(-c2cc3ccccc3oc2=O)cs1 [1-(4-Nitrophenyl)-3-(4-(2-oxo-2H-chromen-3-yl)thiazol-2-yl)urea (e6)] | 4.13 | 4.28 |
| O=C(Nc1ccc(Cl)cc1)Nc1nc(-c2cc3ccccc3oc2=O)cs1 [1-(4-Chlorophenyl)-3-(4-(2-oxo-2H-chromen-3-yl)thiazol-2-yl)urea (e11)] | 4.42 | 4.05 |
| COc1cccc2cc(-c3csc(NC(=O)Nc4ccc(C)cc4)n3)c(=O)oc12 [1-(4-(8-Methoxy-2-oxo-2H-chromen-3-yl)thiazol-2-yl)-3-(ptolyl)urea (e16)] | 4.09 | 4.02 |
| COc1ccc(NC(=O)Nc2nc(-c3cc4cc([N+](=O)[O-])ccc4oc3=O)cs2)cc1 [1-(4-Methoxyphenyl)-3-(4-(6-nitro-2-oxo-2H-chromen-3-yl)thiazol-2-yl)urea (e28)] | < 3.70 | 3.93 |
| COc1cccc2cc(-c3csc(NC(=S)Nc4ccc(C)cc4)n3)c(=O)oc12 [1-(4-(8-Methoxy-2-oxo-2H-chromen-3-yl)thiazol-2-yl)-3-(ptolyl)thiourea (f4)] | 4.29 | 4.44 |
| O=c1oc2ccccc2cc1-c1csc(NC(=S)Nc2ccc(Cl)cc2)n1 [1-(4-Chlorophenyl)-3-(4-(2-oxo-2H-chromen-3-yl)thiazol-2-yl)thiourea (f2)] | 5.12 | 4.61 |
| COc1cccc2cc(-c3csc(NC(=S)Nc4ccc(F)cc4)n3)c(=O)oc12 [1-(4-(8-Methoxy-2-oxo-2H-chromen-3-yl)thiazol-2-yl)-3-(4-fluorophenyl)thiourea (f7)] | 4.63 | 4.34 |

| Structure (SMILES) | pIC50 [1] | pIC50 [2] |
| --- | --- | --- |
| COc1ccc(NC(=O)Nc2nc(-c3cc4cccc(OC)c4oc3=O)cs2)cc1 [1-(4-(8-Methoxy-2-oxo-2H-chromen-3-yl)thiazol-2-yl)-3-(4-methoxyphenyl)urea (e15)] | 3.92 | 4.00 |
| O=C(Nc1ccccc1)Nc1nc(-c2cc3cc([N+](=O)[O-])ccc3oc2=O)cs1 [1-(4-(6-Nitro-2-oxo-2H-chromen-3-yl)thiazol-2-yl)-3-phenylurea (e30)] | 3.99 | 4.07 |
| O=C(Nc1ccccc1)Nc1nc(-c2cc3ccccc3oc2=O)cs1 [1-Phenyl-3-(4-(2-oxo-2H-chromen-3-yl)thiazol-2-yl)urea (e5)] | 4.14 | 4.13 |
| O=C(Nc1ccc(F)cc1)Nc1nc(-c2cc3cc([N+](=O)[O-])ccc3oc2=O)cs1 [1-(4-Fluorophenyl)-3-(4-(6-nitro-2-oxo-2H-chromen-3-yl)thiazol-2-yl)urea (e31)] | 3.87 | 5.31 |
| Cc1ccc(NC(=O)Nc2nc(-c3cc4ccccc4oc3=O)cs2)cc1 [1-(p-tolyl)-3-(4-(2-oxo-2H-chromen-3-yl)thiazol-2-yl)urea (e4)] | 4.09 | 4.26 |
| Cc1ccc(NC(=O)Nc2nc(-c3cc4cc([N+](=O)[O-])ccc4oc3=O)cs2)cc1 [1-(4-(6-Nitro-2-oxo-2H-chromen-3-yl)thiazol-2-yl)-3-(ptolyl)urea (e29)] | 4.03 | 3.71 |
| COc1ccccc1NC(=O)Nc1nc(-c2cc3ccccc3oc2=O)cs1 [1-(2-Methoxyphenyl)-3-(4-(2-oxo-2H-chromen-3-yl)thiazol-2-yl)urea (e1)] | 4.42 | 4.52 |
| O=C(Nc1nc(-c2cc3ccccc3oc2=O)cs1)Nc1ccccc1F [1-(2-Flurophenyl)-3-(4-(2-oxo-2H-chromen-3-yl)thiazol-2-yl)urea (e7)] | 4.50 | 4.46 |
| O=C(Nc1cccc(F)c1)Nc1nc(-c2cc3ccccc3oc2=O)cs1 [1-(3-Fluorophenyl)-3-(4-(2-oxo-2H-chromen-3-yl)thiazol-2-yl)urea (e8)] | 4.24 | 4.21 |
| O=C(Nc1ccc(I)cc1)Nc1nc(-c2cc3ccccc3oc2=O)cs1 [1-(4-Iodophenyl)-3-(4-(2-oxo-2H-chromen-3-yl)thiazol-2-yl)urea (e13)] | 4.04 | 3.95 |
| COc1cccc2cc(-c3csc(NC(=O)Nc4ccc(F)cc4)n3)c(=O)oc12 [1-(4-Fluorophenyl)-3-(4-(8-methoxy-2-oxo-2H-chromen-3-yl)thiazol-2-yl)urea (e22)] | 3.94 | 4.20 |
| O=C(Nc1ccc(F)cc1)Nc1nc(-c2cc3ccccc3oc2=O)cs1 [1-(4-Fluorophenyl)-3-(4-(2-oxo-2H-chromen-3-yl)thiazol-2-yl)urea (e9)] | 4.00 | 4.07 |
| O=C(Nc1cccc(Cl)c1)Nc1nc(-c2cc3ccccc3oc2=O)cs1 [1-(3-Chlorophenyl)-3-(4-(2-oxo-2H-chromen-3-yl)thiazol-2-yl)urea (e10)] | 3.95 | 4.18 |
| COc1cccc2cc(-c3csc(NC(=O)Nc4cccc([N+](=O)[O-])c4)n3)c(=O)oc12 [1-(4-(8-Methoxy-2-oxo-2H-chromen-3-yl)thiazol-2-yl)-3-(3-nitrophenyl)urea (e18)] | 4.05 | 4.11 |
| O=C(Nc1ccc(Br)cc1)Nc1nc(-c2cc3ccccc3oc2=O)cs1 [1-(4-Bromophenyl)-3-(4-(2-oxo-2H-chromen-3-yl)thiazol-2-yl)urea (e12)] | 3.92 | 4.02 |

From BindingDB's records for doi:10.1016/j.bioorg.2015.02.002 (Bezmialem Vakif University, 2015)
